As a reminder, the IC50 is the concentration needed to halve the response being measured. Read a low IC50 as greater potency in that assay.

The target in experiment [1] is Platelet-derived growth factor receptor beta (Rattus norvegicus, UniProt Q05030). Briefly: Inhibition of PDGF-BB induced PDGF-B receptor autophosphorylation in rat mesangial cells. The experiment is classed as functional, cell-based.
In experiment [2] the target is Epidermal growth factor receptor (Homo sapiens, UniProt P00533). Briefly: Inhibition of epidermal growth factor receptor (EGF-R) autophosphorylation in A431 cells. The experiment is classed as functional, cell-based, A-431.
The target in experiment [3] is cAMP-dependent protein kinase (PKA) (Homo sapiens, UniProt P22694+P17612+P22612). The experiment can be described thus: Inhibition of Protein kinase A. Type of experiment: protein assay.
The target of experiment [4] is Mitogen-activated protein kinase; ERK1/ERK2 (Homo sapiens, UniProt P27361+P28482). The experiment can be described thus: Inhibition of Mitogen-activated protein kinase. The experiment is classed as protein assay.
Experiment [5] has as its target Proto-oncogene tyrosine-protein kinase Src (Homo sapiens, UniProt P12931). Briefly: Inhibition of c-SRC.
The next experiment has as its target Protein kinase C (PKC). Briefly: Inhibition of Protein kinase C. The experiment is classed as protein assay.
Experiment [6] addresses Cyclin-dependent kinase 1 (Homo sapiens, UniProt P06493). The experiment can be described thus: Inhibition of Cdc2.

Epidermal growth factor receptor, sequence (P00533 whole entry): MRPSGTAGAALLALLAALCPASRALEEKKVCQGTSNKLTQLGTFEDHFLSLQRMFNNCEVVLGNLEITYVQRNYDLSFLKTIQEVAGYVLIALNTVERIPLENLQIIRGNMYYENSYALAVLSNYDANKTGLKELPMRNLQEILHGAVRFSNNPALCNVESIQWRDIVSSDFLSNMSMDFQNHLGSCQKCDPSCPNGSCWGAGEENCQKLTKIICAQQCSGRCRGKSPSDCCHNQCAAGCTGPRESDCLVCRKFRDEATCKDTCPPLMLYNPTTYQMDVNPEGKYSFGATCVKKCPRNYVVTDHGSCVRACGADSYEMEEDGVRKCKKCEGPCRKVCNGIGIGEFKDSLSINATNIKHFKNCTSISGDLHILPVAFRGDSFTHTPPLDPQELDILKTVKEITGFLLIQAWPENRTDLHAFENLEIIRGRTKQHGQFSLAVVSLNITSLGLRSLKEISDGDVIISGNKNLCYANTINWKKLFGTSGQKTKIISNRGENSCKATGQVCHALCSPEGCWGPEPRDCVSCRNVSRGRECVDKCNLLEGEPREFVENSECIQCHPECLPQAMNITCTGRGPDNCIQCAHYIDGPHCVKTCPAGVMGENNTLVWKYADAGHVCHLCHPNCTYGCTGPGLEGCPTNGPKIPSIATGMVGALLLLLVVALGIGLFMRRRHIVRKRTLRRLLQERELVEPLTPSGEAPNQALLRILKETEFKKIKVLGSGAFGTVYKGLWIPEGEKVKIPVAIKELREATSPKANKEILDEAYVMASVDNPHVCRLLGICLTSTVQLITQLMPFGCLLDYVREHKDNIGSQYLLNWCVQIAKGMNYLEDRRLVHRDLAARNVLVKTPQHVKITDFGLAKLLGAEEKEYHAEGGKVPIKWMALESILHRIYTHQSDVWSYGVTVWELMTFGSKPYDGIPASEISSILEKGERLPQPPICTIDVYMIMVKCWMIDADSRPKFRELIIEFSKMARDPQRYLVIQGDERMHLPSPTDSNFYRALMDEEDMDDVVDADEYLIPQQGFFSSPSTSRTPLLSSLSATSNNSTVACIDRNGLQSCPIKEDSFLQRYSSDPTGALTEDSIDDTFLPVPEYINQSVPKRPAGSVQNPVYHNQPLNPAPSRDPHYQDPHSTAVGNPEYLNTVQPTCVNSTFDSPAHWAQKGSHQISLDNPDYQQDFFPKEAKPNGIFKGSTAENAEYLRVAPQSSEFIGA
Platelet-derived growth factor receptor beta, sequence (Q05030 whole entry): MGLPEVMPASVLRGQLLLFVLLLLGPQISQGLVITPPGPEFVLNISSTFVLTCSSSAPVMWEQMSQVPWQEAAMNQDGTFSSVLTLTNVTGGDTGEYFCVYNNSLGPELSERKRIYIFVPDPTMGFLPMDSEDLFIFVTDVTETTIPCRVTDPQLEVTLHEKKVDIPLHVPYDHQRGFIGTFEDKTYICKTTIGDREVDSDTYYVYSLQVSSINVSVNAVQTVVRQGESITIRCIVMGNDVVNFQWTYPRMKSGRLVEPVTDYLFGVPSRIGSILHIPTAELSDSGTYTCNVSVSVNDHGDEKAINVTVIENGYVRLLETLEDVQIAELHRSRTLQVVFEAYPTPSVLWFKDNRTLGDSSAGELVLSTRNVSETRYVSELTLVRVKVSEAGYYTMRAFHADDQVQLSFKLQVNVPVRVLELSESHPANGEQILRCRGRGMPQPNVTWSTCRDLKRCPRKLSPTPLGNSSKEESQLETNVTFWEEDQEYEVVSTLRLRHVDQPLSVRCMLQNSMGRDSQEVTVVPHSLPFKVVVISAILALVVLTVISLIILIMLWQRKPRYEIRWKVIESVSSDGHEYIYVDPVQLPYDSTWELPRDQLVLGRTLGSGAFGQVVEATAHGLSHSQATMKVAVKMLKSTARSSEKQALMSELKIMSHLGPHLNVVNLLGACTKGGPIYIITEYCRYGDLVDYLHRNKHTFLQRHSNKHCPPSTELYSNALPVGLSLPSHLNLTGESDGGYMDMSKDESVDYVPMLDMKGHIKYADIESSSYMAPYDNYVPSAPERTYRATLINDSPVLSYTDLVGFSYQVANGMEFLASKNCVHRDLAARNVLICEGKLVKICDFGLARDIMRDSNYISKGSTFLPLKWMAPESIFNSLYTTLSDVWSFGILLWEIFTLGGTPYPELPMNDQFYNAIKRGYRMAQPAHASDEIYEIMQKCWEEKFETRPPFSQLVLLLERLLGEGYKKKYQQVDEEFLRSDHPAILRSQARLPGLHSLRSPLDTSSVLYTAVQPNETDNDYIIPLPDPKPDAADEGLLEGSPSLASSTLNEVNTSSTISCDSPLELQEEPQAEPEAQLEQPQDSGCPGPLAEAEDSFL
Cyclin-dependent kinase 1, sequence (P06493 whole entry): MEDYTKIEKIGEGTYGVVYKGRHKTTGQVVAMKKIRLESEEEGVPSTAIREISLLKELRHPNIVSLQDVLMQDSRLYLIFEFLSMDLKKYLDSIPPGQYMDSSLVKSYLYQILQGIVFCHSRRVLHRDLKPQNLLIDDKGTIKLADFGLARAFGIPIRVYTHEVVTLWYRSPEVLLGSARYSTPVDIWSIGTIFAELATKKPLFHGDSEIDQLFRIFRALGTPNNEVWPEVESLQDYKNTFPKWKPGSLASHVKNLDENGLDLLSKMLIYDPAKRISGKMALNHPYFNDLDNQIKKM
Proto-oncogene tyrosine-protein kinase Src, sequence (P12931 2-536 limits assumed): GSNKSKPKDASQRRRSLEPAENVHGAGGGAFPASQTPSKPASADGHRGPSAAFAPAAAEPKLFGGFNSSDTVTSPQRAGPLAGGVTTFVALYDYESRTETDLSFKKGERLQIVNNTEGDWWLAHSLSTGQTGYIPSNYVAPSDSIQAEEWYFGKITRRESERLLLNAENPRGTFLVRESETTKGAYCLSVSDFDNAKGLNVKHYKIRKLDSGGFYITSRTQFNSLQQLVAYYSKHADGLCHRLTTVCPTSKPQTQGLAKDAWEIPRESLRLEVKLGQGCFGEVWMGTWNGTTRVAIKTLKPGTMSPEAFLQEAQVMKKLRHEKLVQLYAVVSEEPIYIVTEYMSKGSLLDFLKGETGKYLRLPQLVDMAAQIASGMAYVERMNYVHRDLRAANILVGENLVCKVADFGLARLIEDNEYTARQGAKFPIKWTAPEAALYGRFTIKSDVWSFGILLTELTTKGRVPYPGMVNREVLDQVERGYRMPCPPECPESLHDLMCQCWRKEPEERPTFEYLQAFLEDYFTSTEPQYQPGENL

Take `COc1ccc(Nc2ncnc3cc(OC)c(OC)cc23)cc1OC`: the figures for the IC50 in experiment [1] and in experiment [2] were 4.5 µM and 2.8 µM, respectively. `CCc1cccc(Oc2ccnc3cc(OC)c(OC)cc23)c1` showed an IC50 in experiment [1] of 8.4 µM. Same read-out and setting: as for `COc1cc2nccc(Oc3cccc(O)c3)c2cc1OC`, the figure is 0.56 µM. For the compound `COc1cc2nccc(Oc3cccc(Br)c3)c2cc1OC`, the IC50 in experiment [1] is 8.4 µM; in experiment [2], 2.5 µM. Take `COc1cc(OC)cc(Oc2ccnc3cc(OC)c(OC)cc23)c1`: the IC50 in experiment [1] amounted to 5.5 µM. Same read-out and setting: as for `COc1cc2nccc(Oc3cccc(F)c3)c2cc1OC`, the figure is 1.5 µM; as for `COc1cc2nccc(Oc3c(OC)cccc3OC)c2cc1OC`, 69.3 µM. In experiment [1], `COc1cc2nccc(Oc3cccc(N)c3)c2cc1OC` showed an IC50 of 1.7 µM. In the case of `COc1ccc(Oc2ccnc3cc(OC)c(OC)cc23)cc1OC`, the IC50 is more than 10 µM in experiment [3]; more than 10 µM in experiment [4]; more than 10 µM in experiment [5]; more than 20 µM on Protein kinase C (PKC); more than 10 µM in experiment [6]. Regarding `COc1cc2nccc(Oc3ccccc3)c2cc1OC`, the IC50 in experiment [1] was determined as 0.76 µM. Take `COc1cc2nccc(Oc3ccccc3OC)c2cc1OC`: the half-inhibitory concentration (IC50) in experiment [1] is 0.6 µM. For `COc1ccc(Oc2ncnc3cc(OC)c(OC)cc23)cc1OC`, the IC50 is 0.57 µM in experiment [1] and more than 100 µM in experiment [2]. For the compound `COc1ccc(Nc2ccnc3cc(OC)c(OC)cc23)cc1OC`, the half-maximal inhibitory concentration (IC50) in experiment [1] is 2.6 µM; in experiment [2], 80.5 µM.

`COc1cc2nccc(Oc3cccc(OC)c3OC)c2cc1OC` had an IC50 in experiment [1] of 4.4 µM.

`CCOc1cccc(Oc2ccnc3cc(OC)c(OC)cc23)c1`: the IC50 in experiment [1] was found to be 12.9 µM. The same measure, in the same setting: the same measure for `COc1cc2nccc(Nc3cccc(Br)c3)c2cc1OC`: 21.5 µM; for `COc1ccc(Oc2ccnc3cc(OC)c(OC)cc23)cc1`: 1.9 µM.

For the compound `COc1cc2ncnc(Oc3cccc(Br)c3)c2cc1OC`, the IC50 in experiment [1] turned out to be 14.8 µM; in experiment [2], 0.07 µM. In experiment [1], `COc1cc2nccc(Oc3cccc(C)c3)c2cc1OC` came in with an IC50 of 6.9 µM. Still for that read-out and setting: as for `COc1cc2nccc(Oc3cccc([N+](=O)[O-])c3)c2cc1OC`, the figure is 0.7 µM.
